Test results published in patent publication US4959377A, “Phenoxypyridinamine compounds which are use as a dermatological composition” (Hoechst-Roussel Pharmaceuticals Inc., priority 1989, dated 1990).
Structures can show the parent of a compound that is named as a salt.

Experiments:
[1] = test system: ear edema induced by topical application of TPA (phorbol 12-myristate acetate); experiment: TPA-Induced Ear Edema (TPAEE); type: in vivo, Female Swiss Webster mice; settings: for TPAEE: 10 μg/ear topical, TPA 10 μg/ear, five hours
Description: TPA-Induced Ear Edema (TPAEE)
The purpose of this assay was to determine the ability of a topically-applied compound to prevent ear edema induced by topical application of TPA (phorbol 12-myristate acetate). Female Swiss Webster mice topically received TPA (10 μg/ear) on the right ear and vehicle on the left ear. The test compound (10 μg/ear) was applied to both ears. After five hours, the animals were sacrificed and an ear punch (4 mm) was taken from each ear. The difference in right and left ear punch weights for each animal was determined to assess activity. […] See Young, J. M. et al., J. Invest. Dermatol., 80 (1983), pp. 48-52.

[2] = molecular target: T1, porcine pancreatic PLA2 (Sus scrofa, UniProt P00592); experiment: In Vitro Phospholipase A2 Assay (PLA2); type: biochemical; settings: 0.01 M test compound, 37° C., pH 8.0; read-out: PLA2 (difference vs. control)
T1 construct: from tissue; host or cells: porcine pancreas
T1 sequence (P00592 23-146): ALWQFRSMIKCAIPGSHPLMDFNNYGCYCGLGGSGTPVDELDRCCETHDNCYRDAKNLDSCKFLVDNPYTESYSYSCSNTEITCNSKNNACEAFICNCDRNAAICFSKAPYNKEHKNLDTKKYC
Description: In Vitro Phospholipase A2 Assay (PLA2)
The ability of a compound to modulate PLA2 activity (cleavage of ^14 C-dipalmitoyl phosphotidylcholine at the 2-position to ^14 C-palmitic acid) was quantitated in this assay. The reaction mixture contained Tris buffer (25 mM), pH 8.0, calcium chloride (2.0 mM), bovine serum albumin (0.5 mg), dipalmitoyl phosphotidylcholine (8×10^-5M), (^14 C-palmitoyl)dipalmitoyl phosphotidylcholine (6×10^3cpm), porcine pancreatic PLA2 (3.2 units) and the test compound. The reaction was run at 37° C. in a shaking incubator. The reaction was quenched and an internal standard was added in order to determine sample recovery. The samples were loaded onto C18 columns, eluted with ethanol, and the radioactivity was then measured. […] See Feyen, J. H. M., et al., Journal of Chromatography 259 (1983), pp. 338-340.

[3] = test system: mouse ear edema induced by topical application of arachidonic acid; experiment: Arachidonic Acid-Induced Ear Edema (AAEE); type: in vivo, Female Swiss Webster mice
Description: Arachidonic Acid-Induced Ear Edema (AAEE)
The purpose of this assay was to determine the ability of a topically-applied compound to prevent mouse ear edema induced by topical application of arachidonic acid. Female Swiss Webster mice topically received vehicle or test compound (1.0 mg/ear) on both ears (10 μl on outer and inner ears). After 30 minutes, the right ear of all groups received arachidonic acid (4 mg/ear) and the left ear received vehicle alone. After an additional 1 hour, the mice were sacrificed and an ear punch (4 mm) was taken from each ear. The difference in right and left ear punch weights for each animal was determined to assess activity. […] See Young, J. M. et al., J. Invest. Dermatol., 80, (1983), pp 48-52.

[4] = test system: naja naja (snake venom) phospholipase A2 -induced paw edema; experiment: Phospholipase A2-induced Paw Edema (PIPE); type: in vivo, male Wistar rats
Description: Phospholipase A2 -induced Paw Edema (PIPE)
The ability of compounds to prevent naja naja (snake venom) phospholipase A2 -induced paw edema in male Wistar rats (100-125 g) was measured. PLA2 (3 units/paw) alone or with 0.1M of the test compound was injected in the subplantar region of the rat left hindpaw. Immediately subsequent to the injection and at two hours post administration the paw was immersed in a mercury bath, and paw displacement was measured on a recorder via a transducer. […] See Giessler, A. J. et al., Agents and Actions, Vol. 10, Trends in Inflammation Research (1981), p. 195.

Compound: COc1ccc(Oc2c[n+]([O-])ccc2[N+](=O)[O-])cc1 [3-(4-Methoxyphenoxy)-4-nitropyridine-1-oxide]
- TPAEE [1]: -43%

Compound: Cl.Nc1ccncc1Oc1ccccc1 [3-phenoxy-4-pyridinamine hydrochloride, 3-Phenoxy-4-pyridinamine hydrochloride]
- TPAEE [1]: -60%
- inhibition at 10000 µM [2]: 95%
- AAEE ([3]; 1 mg/ear topical, arachidonic acid 4 mg/ear, 1 hour): -31%
- PIPE (difference in edema vs. control) ([4]; 0.1 M test compound injected with PLA2 (3 units/paw), subplantar, rat hindpaw, two hours post administration): -79%

Compound: CC(=O)Nc1ccncc1Oc1ccccc1 [N-(3-Phenoxy-4-pyridinyl)acetamide hydrochloride]
- inhibition at 10000 µM [2]: 73%

Compound: Nc1cnccc1Oc1ccccc1 [4-phenoxy-3-pyridinamine, 4-Phenoxy-3-pyridinamine]
- TPAEE [1]: -34%

Compound: COc1ccc2c(c1)c(CC(=O)O)c(C)n2C(=O)c1ccc(Cl)cc1 [indomethacin, reference compound]
- ED50 (AAEE standard) ([3]; standard, topical): 1.5 mg/ear

Compound: C[C@]12CCC(=O)C=C1CC[C@@H]1[C@@H]2[C@@H](O)C[C@@]2(C)[C@H]1CC[C@]2(O)C(=O)CO [hydrocortisone, reference compound]
- ED50 (TPAEE standard) ([1]; standard, topical): 47 μg/ear
- ED50 (PIPE standard) ([4]; standard, rat paw edema): 0.46 M

Compound: CCOC(=O)Cc1ccc(Oc2cnccc2N)cc1.O=C(O)C(=O)O [4-(4-Amino-3-pyridinyloxy)benzeneacetic acid ethyl ester oxalate]
- TPAEE [1]: -39%

Compound: COC(=O)c1ccccc1Oc1cnccc1N [2-(4-Amino-3-pyridinyloxy)benzoic acid methyl ester hydrochloride]
- inhibition at 10000 µM [2]: 38%

Compound: Nc1ccncc1Oc1ccccc1CO [2-(4-Amino-3-pyridinyloxy)benzenemethanol oxalate]
- inhibition at 10000 µM [2]: 82%
